Bridges are numbered along the chain shown (N, C = ends). [ ]: non-standard residue; d: D form. Abu = CC[C@H](N)C(=O)O

What all share (assay type): cell-based
In experiment [1] the test system is Ser40 phosphorylation of Th in MN9D cells. The experiment can be described thus: Th Ser40 phosphorylation in MN9D cells (western blot, P-Ser40/total Th). The method, then: FIG. 6. PDE2a is an important effector regulating Ser40 phosphorylation in MN9D cells. MN9D cultures were treated with IBMX or BAY-60-7550 (50 μM), a PDE2A-selective inhibitor. Cells were analyzed on western-blot for phosphorylation of Ser40 , total Th, and actin.
(§1) FIG. 7. PDE2a is an important effector regulating Ser40 phosphorylation in MN9D cells. BAY-60-7550 dose-curve and representative examples in MN9D (n=9, red) and HEK cells (n=4, blue) (Mean±SEM). Cells were treated with various concentrations of BAY 60-7750 and analyzed for Th phosphorylation on Ser40 , total Th and actin.
FIG. 10. PDE11 is an important effector regulating Ser40 phosphorylation in MN9D cells. BC 11-38 dose-curve and representative examples in MN9D (n=2) (Mean±SEM). IBMX served as a control and was used at 100 μM. Cell were analyzed for phosphorylation of Th on Ser40 and total Th was used as a loading control to determine phosphorylation specific effects.
24 hours prior to the administration of the different compounds, cells were serum-starved with DMEM medium supplemented with L-glutamine and Pen&Strep. Unless otherwise stated, the concentration of the different reagents is reported in Table 1 and the duration of the treatment was 1 hour.
Cells were harvested in 150 μL of Laemmli sample buffer (2% SDS, 10% glycerol, 60 mM Tris-Cl pH 6.8, 0.01% bromophenol blue, 50 mM freshly added DTT). Wells were duplicated in pairs and pooled into the same tubes to minimize variability. Samples were sonicated at maximum potency during 3 minutes, heated at 95° C. for 5 minutes and spun down briefly before loading. Running gels were 10% polyacrylamide except for the GUCY2C detection, which was optimal in 7% gels (375 mM Tris-Cl pH 8.8, 0.1% APS, 0.1% SDS, 0.04% TEMED). Stacking gels were 5% polyacrylamide (125 mM Tris-Cl pH 6.8, 0.1% APS, 0.1% SDS, 0.04% TEMED).
Up to 35 μL of sample was loaded in each slot and run in the presence of tris-glycine buffer and 0.1% SDS. Running conditions were 100 V during the first 20 minutes, followed by 160 V until the migration front reached the bottom of the gel. The transference was performed at 100 V onto 0.2 μm nitrocellulose membranes, in the presence of tris-glycine buffer and 20% methanol. The blotting duration was 140 minutes except for the detection of GUCY2C, which was transferred during 240 minutes in the presence of 0.1% SDS. Membranes were then submerged in Ponceau S solution to check blotting efficiency (0.1% Ponceau S, 5% acetic acid). After several washings with DEMI water, blots were incubated during 1 hour in the presence of 5% milk powder and TBS-T (154 mM NaCl, 49.5 mM Tris-Cl pH 7.4, 0.1% Tween-20). The incubation with the primary antibodies was performed O/N at 4° C. in TBS-T (consult Table 2 for dilution and species). Membranes were rinsed in TBS-T during 1 hour to remove the excess antibody. The incubation with the secondary antibodies took place during 60 minutes at room temperature (1:10,000 dilution in TBS-T, with the exception of the goat secondary which was diluted 1:20,000). Secondary antibodies were fused to the horseradish peroxidase and raised against the host species of the primary antibody. After additional washings during 1 hour, blots were exposed to an enhanced chemiluminescence solution and the signal was detected using an Odyssey imager (LI-COR). Band densitometry was performed with LI-COR Image Studio Lite. For graph quantifications, ‘Fold Change’ represents the ratio P-Ser40/Total Th. Statistical comparisons between pair of groups correspond to unpaired Student's t-tests, as calculated with GraphPad Prism. Asterisks denote the following p-values: *<0.05, **<0.01, ***<0.001, ****<0.0001.
IBMX is a non-selective PDE inhibitor, therefore we investigated the effect of inhibiting a specific PDE selectively on Ser40 phosphorylation. To study the effect of PDE2A inhibition on Ser40 phosphorylation we treated the dopaminergic cell-line MN9D with Bay BAY-60-7550 and analyzed the effects. […]

The test system of experiment [2] is Ser40 phosphorylation of Th in HEK cells transfected with Th. Briefly: Th Ser40 phosphorylation in HEK cells transfected with Th (western blot). The following applies: HEK transfected with Th, 500 μM, 48 hours post-plating. As to the method: FIG. 3. HEK cells are a suitable model to study GUCY2C-induced Ser40 phosphorylation. (A) RT-qPCR data from intact HEK extracts. Input material was 10 ng of total RNA. Cp corresponds to the cycle number in which the expression starts to be considered positive. (−) represents the water control, which is negative in every case. (B) HEK cultures were transfected with Th and treated with a cGMP analogue 48 hours post-plating. Changes in Ser40 phosphorylation were studied. The graph represents the statistical analysis (n=6; Mean±SEM). Unpaired Student's t-test (p-value: ****<0.0001). Hereon, ‘Fold Change’ corresponds to the ratio P-Ser40/Total Th.
as §1
HEK cells were maintained in 100-mm Petri dishes and grown in DMEM medium supplemented with L-glutamine, penicillin-streptomycin (Pen&Strep) and 10% heat-inactivated fetal bovine serum (HIFBS). Growing conditions were 37° C. and 5% CO2. For every-other-day passages, HEK cultures were split at a 1:3 dilution. From Friday to Monday, the split proportion was doubled for all cell lines. For passaging, cultures were rinsed with PBS and incubated with 1 mL of trypsin during 5 minutes. Cells were resuspended in growth medium and finally split to the proper dilution. The experiments were performed in 12-well plates. For immunocytochemistry analysis, sterile 18-mm coverslips were added prior to the plating. 500 !μL of cell resuspension was seeded in each well. If experiments were to be performed 48 hours after the plate preparation, 1:5 was the seeding ratio for HEK cells. When the experiments took place 96 hours post-plating, 1:7 was the working dilution for HEK cells. Unless otherwise stated, HEK cultures were processed 96 hours post-plating.
HEK cells were transfected using the calcium-phosphate method. […]

The subject of experiment [3] is Th Ser40 phosphorylation in mouse striatum slices. Briefly: Th Ser40 phosphorylation in mouse striatal slices ex vivo (WES automated western). The following applies: for Fold change (average), P-S40 TH/TTH / effects in striatal slices (significance, in words): 1 h; for Fold change (average), P-S40 TH/TTH: WES; for effects in striatal slices (significance, in words): peptides 10 μM, mouse striatal slices. The source says: FIG. 13. Bay 60-7550 and Guanylin synergize to induce Ser40 phosphorylation Analysis of striatal slices treated with indicated compounds. WES data showing the phosphorylation of Th on Serine 40 is shown as well as total Th levels (a). From left to right are sequential striatal slices from rostral to caudal. Every slice is split into left and right hemisphere and either treated with compounds or vehicle. Left a positive and negative control is shown (Neuro2a cells transfected with Th or empty vector). The amount of Th Ser40 is corrected for the amount of total Th and shown in the bar graph (b). Each individual slice is indicated by a different symbol. Signficance is determined using a 2-tailed paired t-test. 2-tailed paired t-test: p=0.006.
Adult mice with an average of 5 weeks were sacrificed and the brain was quickly removed and sliced into coronal sections of 250 μm using a vibratome. Sections containing striatum were micro-dissected to remove non-striatal structures. Hemispheres were separated and one hemisphere was treated with compounds whereas the counter-hemisphere was treated with vehicle. Treatment of slices occurred in carbonized artificial cerebrospinal fluid (aCSF). After treatments, slices were lyzed in SDS containing sample buffer, sonicated, and heated at 95° C. Samples were analyzed on a WES automated western system (Protein Simple) according to manufacturer's instructions.
To investigate the effect of PDE2 inhibition in the mouse brain, an ex-vivo approach using brain slices was utilized. Coronal slices of mouse striatum were prepared and treated with BAY-60 7550 diluted in aCSF and subsequently analyzed by a WES automated western system. […] PDE2 is thus expressed in dopaminergic neurons and PDE2 protein and Th protein are present in the synaptic terminals of the neurons which project from the midbrain dopamine system to the striatum. To investigate the effects of GUCY2C ligands on Th activation, coronal slices of the mouse striatum were prepared, treated with guanylin and analyzed for Th Ser40 phosphorylation as was done for BAY-60-7550. […] The machinery for producing dopamine is thus present in the synaptic terminals where dopamine is released. […] Since both BAY 60-7550 and guanylin increased Th phosphorylation at 10μM, but not at 1 μM, we examined the effect of combining BAY 60-7750 and guanylin at 1μM.

Another experiment has as its target GUCY2C (Homo sapiens, UniProt P25092). The experiment can be described thus: GUCY2C ligand analysis in HEK-293 cells transfected with GUCY2C and Th (WES). On the set-up: expressed in transfected cells; host or cells: HEK-293 cells transfected with GUCY2C and Th. The following applies: 10 μM, Th Ser40 corrected for total Th, n=3. As to the method:
Potential GUCY2C ligands were tested in HEK-293 cells transfected with GUCY2C and Th and subsequently treated and analyzed by automated western (WES). Th Ser40 was corrected for total Th. Controls were set to 1. Significance is determined by two-tailed t-test on n=3. * p<0.05, **p<0.01, ***p<0.005, “”p<0.001. A) Guanylin control 10 μM. B) Peptides 1 to 5 in an amount of 10 μM. C) Peptides 6 to 11 in an amount of 10 μM.
We designed novel peptides with different activities with respect to endogenous GUCY2C ligands (Table 3). The peptides were analyzed in Th and GUCY2C transfected HEK-293 cells and subsequently tested ex-vivo in mice striatal slices. […] We synthezised uroguanylin and heat stable toxin as controls for the synthezised peptides and they thus are from a different source than the commercially available uroguanylin and heat stable toxin. […] Possibly the effects of the peptides can differ depending on the area in the striatum which is stimulated.

Chain of GUCY2C (P25092 24-1073): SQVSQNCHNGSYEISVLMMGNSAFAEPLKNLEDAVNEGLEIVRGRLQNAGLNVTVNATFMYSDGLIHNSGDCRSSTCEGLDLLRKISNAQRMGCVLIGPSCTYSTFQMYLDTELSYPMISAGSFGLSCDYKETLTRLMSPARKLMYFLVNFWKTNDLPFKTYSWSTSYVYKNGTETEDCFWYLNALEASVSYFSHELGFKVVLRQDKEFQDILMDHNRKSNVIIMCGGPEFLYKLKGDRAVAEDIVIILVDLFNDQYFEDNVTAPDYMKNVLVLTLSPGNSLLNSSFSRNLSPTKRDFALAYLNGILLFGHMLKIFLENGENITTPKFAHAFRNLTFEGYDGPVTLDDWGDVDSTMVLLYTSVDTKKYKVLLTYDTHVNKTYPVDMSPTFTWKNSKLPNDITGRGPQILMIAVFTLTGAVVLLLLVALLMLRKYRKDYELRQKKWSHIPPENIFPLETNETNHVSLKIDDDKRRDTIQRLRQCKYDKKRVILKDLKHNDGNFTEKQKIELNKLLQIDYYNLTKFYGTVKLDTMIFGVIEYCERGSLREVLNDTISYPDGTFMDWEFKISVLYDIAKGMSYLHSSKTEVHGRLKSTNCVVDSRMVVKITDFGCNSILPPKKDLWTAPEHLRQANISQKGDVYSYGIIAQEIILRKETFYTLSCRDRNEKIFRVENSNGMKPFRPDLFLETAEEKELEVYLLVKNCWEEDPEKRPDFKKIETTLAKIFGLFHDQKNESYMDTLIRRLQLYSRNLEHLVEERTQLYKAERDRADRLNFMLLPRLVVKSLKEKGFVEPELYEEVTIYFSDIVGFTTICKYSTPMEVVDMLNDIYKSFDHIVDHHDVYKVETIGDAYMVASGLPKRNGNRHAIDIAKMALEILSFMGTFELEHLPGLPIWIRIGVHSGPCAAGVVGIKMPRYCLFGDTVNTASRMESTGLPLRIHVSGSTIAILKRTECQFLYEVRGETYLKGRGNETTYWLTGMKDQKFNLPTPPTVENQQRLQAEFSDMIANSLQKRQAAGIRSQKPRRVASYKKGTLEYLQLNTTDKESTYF

Consider `CCCSc1nc2c(c(=O)n1-c1ccccc1)SCC2` [BC 11-38], for which, in experiment [1] (IBMX 100 μM as control), the “performance versus IBMX on Ser40 phosphorylation” value is on record as “performed less well than the positive control IBMX”. Moreover, in experiment [1] (dose-curve), the “phosphorylation of Th on Ser40 as compared to total Th (in words)” value was “increase in the phosphorylation of Th on Ser40”.

For the molecule `Nc1nc2c(nc(Br)n2[C@@H]2O[C@@H]3COP(=O)(O)O[C@H]3[C@H]2O)c(=O)[nH]1` [Peptide 8-Bromo-cGMP, 8-Bromo-cGMP], the “P-Ser40 levels upon compound administration” value in experiment [2] is on record as “small but significant increase”.

Regarding H-NDCCELCCNVACTGCL-OH [Peptide 4], the “Fold change (average), P-S40 TH/TTH” value in experiment [3] (10 μM, striatal slices) is listed as 1.00. The “Ser40 phosphorylation in HEK-293 cells (significance, in words)” value at GUCY2C was “significant effects”.

Regarding “H-NDDCELCVNVACTGCL-OH (disulfide 4-12, 7-15; SMILES CC(C)C[C@H](NC(=O)[C@@H]1CSSC[C@@H]2NC(=O)[C@H](CC(C)C)NC(=O)[C@H](CCC(=O)O)NC(=O)[C@@H](NC(=O)[C@H](CC(=O)O)NC(=O)[C@H](CC(=O)O)NC(=O)[C@@H](N)CC(N)=O)CSSC[C@H](NC(=O)[C@H](C)NC(=O)[C@H](C(C)C)NC(=O)[C@H](CC(N)=O)NC(=O)[C@H](C(C)C)NC2=O)C(=O)N[C@@H]([C@@H](C)O)C(=O)NCC(=O)N1)C(=O)O) [Peptide 1]”, the “effects in striatal slices (significance, in words)” value in experiment [3] is reported as “did not show any significant effects”. In addition, the “Ser40 phosphorylation in HEK-293 cells (significance, in words)” value with GUCY2C is given as “did not show any significant effects”.

For “H-NDDCELCVNVACTGCLL-OH (disulfide 4-12, 7-15; ends not checked) [Peptide 2]”, in experiment [3] (10 μM, striatal slices), the “Fold change (average), P-S40 TH/TTH” value worked out at 2.23 and the “rank of fold change in striatal slices” value is on record as “largest fold change”. For the same molecule, the “effects in striatal slices (significance, in words)” value in experiment [3] is “not significant”. Also, the “Ser40 phosphorylation in HEK-293 cells (significance, in words)” value with GUCY2C is on record as “significant effects”.

Take “H-NDDCELCVNVVCTGCL-OH (disulfide 4-12, 7-15; ends not checked) [Peptide 5]”: in experiment [3] (10 μM, striatal slices), the “Fold change (average), P-S40 TH/TTH” value came out at 1.22.

As to H-NTFYCCELCCAPACTGCY-OH [Peptide 10], the “Fold change (average), P-S40 TH/TTH” value in experiment [3] (10 μM, striatal slices) was determined as 1.44. Besides, the “Ser40 phosphorylation in HEK-293 cells (significance, in words)” value at GUCY2C is reported as “significant effects”.

Regarding “H-NTFYCCELCCNPACAGCY-OH (disulfide 5-10, 6-14, 9-17; ends not checked) [Peptide 9]”, the “Fold change (average), P-S40 TH/TTH” value in experiment [3] (10 μM, striatal slices) was 1.37. Further, in the experiment with GUCY2C, the “Ser40 phosphorylation in HEK-293 cells (significance, in words)” value was “significant effects”.

Turning to H-NTFYCCELCCNPaCAGCY-OH [Peptide 11], the “Fold change (average), P-S40 TH/TTH” value in experiment [3] (10 μM, striatal slices) turned out to be 1.20. Also, in the experiment with GUCY2C, the “Ser40 phosphorylation in HEK-293 cells (significance, in words)” value was “significant effects”.

On to “H-QEECELCINMACTGCL-OH (disulfide 4-12, 7-15; ends not checked) [Peptide 8]”, for which the “Fold change (average), P-S40 TH/TTH” value in experiment [3] (10 μM, striatal slices) amounted to 0.89. In the experiment with GUCY2C, the “Ser40 phosphorylation in HEK-293 cells (significance, in words)” value is listed as “significant effects”.

Turning to “H-QEECEL[Abu]INMACTGY-OH (cysteine pairing not given here) [Peptide 6]”, the “Fold change (average), P-S40 TH/TTH” value in experiment [3] (10 μM, striatal slices) was 0.88. Moreover, the “Ser40 phosphorylation in HEK-293 cells (significance, in words)” value at GUCY2C is “significant effects”.

Values taken from patent publication US20210330736A1 (UNIVERSITEIT VAN AMSTERDAM, priority 2018, published 2021).
